Results: patent US20050106171A1, “METHODS AND COMPOSITIONS FOR TREATING EPILEPSY” (priority 2003, published 2005)

Assays:
[1] = tested on: rats induced with cardiazol; assay: Anti-seizure effect of rats induced with cardiazol; type: in vivo, Wistar rats; conditions: day 7, cardiazol 70 mg/kg subcutaneous 30 minutes after last dose; dosed twice daily for 1 week; 20 rats per group
Text: Cardiazol induces seizure activity through intensifying excitatory synaptic activity of the brain. At the appropriate dose, cardiazol induces epileptic bursts that occur spontaneously.
An equal number of female and male Wistar rats that were […], weighing 200-220 g were provided by the Chinese Academy of Military Medical Sciences, Beijing, China. The rats were divided into four groups, each containing 20 rats: the test group (AY), the control yeast group (NY), the positive control group (CK2) and negative control group (CK1). Each rat in the test, control yeast and negative control groups was administered twice daily 0.6 ml of the activated yeast composition, the control yeast composition, and saline, respectively, for 1 week. Each mouse in the positive group was administered twice daily 0.04 g/kg (body weight) of phenobarbital (dissolved in 0.6 ml saline) for 1 week.
On day 7, 30 minutes after administering the last dosage of the above compositions, each group was administered by subcutaneous injection 70 mg/kg (body weight) of cardiazol (prepared as a 5% cardiazol solution in saline). The number of seizures occurred, incubation time (time between completion of injection and first seizure) and life span after injection was recorded immediately thereafter as shown in Table 3.

electroshocked mice = assay: Anti-seizure effect on electroshocked mice; type: in vivo, Kunming mice; conditions: 70 mice per group, dosed twice daily
Text: Electrodes are placed at the ears of the mice to provide instant stimulation through a strong electric currency. An appropriate electric currency induces an excessive surge of electrical activity in the brain resulting in seizures to occur.
Kunming grade healthy mice, which were 50-70 days old, weighing 18-22 g, were provided by the Institute of Zoology, Chinese Academy of Sciences, Beijing, China. The electroshock device (model GJ-2, manufactured by Medical Instrument Factory, Zhejiang Medical University) was adjusted to an output frequency of 60 Hz and voltage of 125 V. An equal number of male and female mice were selected. The ears of the mice were covered with saturated saline soaked-cotton. The electrodes were then clipped onto the ears of the mice. The mice were electroshocked three times for 0.3 seconds at an interval of 10 seconds. Mice with seizure activity were then divided into four groups, each group containing 70 mice: the test group (AY), the control yeast group (NY), the positive control group (CK2) and negative control group (CK1). Each mouse in the test, control yeast and negative control groups was administered twice daily 0.4 ml of the activated yeast composition, the control yeast composition, and saline, respectively, for 1 week. Each mouse in the positive control group was administered twice daily 15 mg/kg of phenobarbital for 1 week.
On each day, the mice were electroshocked once for 0.3 seconds. The number of mice with seizure activity were monitored as illustrated in Table 2.

Question: Which “incubation time (time between completion of injection and first seizure)” value [1] does the source give for `CCC1(c2ccccc2)C(=O)NC(=O)NC1=O` [CK2, phenobarbital] here?
Answer: 7.23 ± 5.32 min

Question: And the “life span after injection” value [1]?
Answer: 22.76 ± 17.37 min

Question: What about the “% mice anti-seizure” value (electroshocked mice; Day 1) of the same compound?
Answer: 15.7%

Question: What about the “No. mice with seizure activity” value (electroshocked mice; Day 1, intragastric, electroshocked once for 0.3 seconds each day) of the same compound?
Answer: 59

Question: What about the “% mice anti-seizure” value (electroshocked mice; Day 2) of the same compound?
Answer: 31.4%

Question: What about the “No. mice with seizure activity” value (electroshocked mice; Day 2) of the same compound?
Answer: 48

Question: And the “% mice anti-seizure” value (electroshocked mice; Day 3)?
Answer: 20%

Question: What about the “No. mice with seizure activity” value (electroshocked mice; Day 3) of the same compound?
Answer: 56

Question: What about the “% mice anti-seizure” value (electroshocked mice; Day 4) of the same compound?
Answer: 21.4%

Question: And the “No. mice with seizure activity” value (electroshocked mice; Day 4)?
Answer: 55

Question: What about the “% mice anti-seizure” value (electroshocked mice; Day 5) of the same compound?
Answer: 17.1%

Question: What about the “No. mice with seizure activity” value (electroshocked mice; Day 5) of the same compound?
Answer: 58

Question: What about the “% mice anti-seizure” value (electroshocked mice; Day 6) of the same compound?
Answer: 12.8%

Question: And the “No. mice with seizure activity” value (electroshocked mice; Day 6)?
Answer: 61

Question: And the “% mice anti-seizure” value (electroshocked mice; Day 7)?
Answer: 12.9%

Question: What about the “No. mice with seizure activity” value (electroshocked mice; Day 7) of the same compound?
Answer: 61
